Tested on: Aβ42 (human neuroglioma H4 cells expressing human wild type APP751)
Assay: In vitro cell screening assay with sandwich ELISA quantification of Aβ42 peptide
Format: cell-based
Details: H4 cells stably expressing human wild type APP751; Pro293 chemically defined medium; compounds 0.003-10 μM; incubated overnight (16-18 h); supernatant Aβ42 by sandwich ELISA; normalized to DMSO and DAPT; read-out: Aβ42 H4 Prot Fre IC50
Procedure, shortened: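 Aβ42 in supernatants was quantified by sandwich ELISA with C-terminal-specific capture and 4G8-HRP detection, absorbance at 450 nm. Stable APP751-expressing human H4 cells received compound at 0.003-10 μM (0.33% DMSO) overnight (16-18 h). IC50 was derived from percent-of-DMSO-control data by nonlinear variable-slope fit.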

SMILES	IC50 [nM]
Cc1cn(-c2ccc(Nc3ncc4c(n3)N(C)C(c3ccccc3C)CO4)cc2)cn1 (single isomer, unassigned; (+)) [Example 43A]	31
Cc1cn(-c2ccc(Nc3ncc4c(n3)N(C)C(c3cc(F)c(F)cc3Cl)CO4)cc2F)cn1 (single isomer, unassigned; (-)) [Example 169B]	2260
COc1cc(Nc2ncc3c(n2)N(C)C(c2ccc(C(F)(F)F)cc2C(F)(F)F)CO3)ccc1-n1cnc(C)c1 (single isomer, unassigned; (+)) [Example 168B]	76
COc1cc(Nc2ncc3c(n2)N2CCOC[C@@H]2CO3)ccc1-n1cnc(C)c1 [Example 296]	759
Cc1cn(-c2ccc(Nc3ncc4c(n3)N(C)C(c3ccc(F)cc3Cl)CO4)cc2F)cn1 (single isomer, unassigned; (+)) [Example 101A]	75
COc1cc(Nc2ncc3c(n2)N(C)[C@H](c2ccccc2)CO3)ccc1-n1cnc(C)c1 [Example 22A, (R)—N-(3-methoxy-4-(4-methyl-1H-imidazol-1-yl)phenyl)-8-methyl-7-phenyl-7,8-dihydro-6H-pyrimido[5,4-b][1,4]oxazin-2-amine]	87
COc1cc(Nc2ncc3c(n2)N(C)C(CC(F)(F)F)CO3)ccc1-n1cnc(C)c1 (single isomer, unassigned; (-)) [Example 172A]	207
COc1cc(Nc2ncc3c(n2)N(C)C(C2(C(F)(F)F)CC2)CO3)ccc1-n1cnc(C)c1 (single isomer, unassigned; (-)) [Example 245A]	216
COc1cc(Nc2ncc3c(n2)N(C)C(c2cc(F)c(F)c(F)c2)CO3)ccc1-c1ccnc(C)c1 (racemic) [Example 39]	35
COC[C@H]1COc2cnc(Nc3ccc(-n4cnc(C)c4)c(OC)c3)nc2N1C [Example 111]	120
Cc1cn(-c2ccc(Nc3ncc4c(n3)N3CCC[C@@]3(C)CO4)cc2F)cn1 [Example 292, (S)-N-(3-fluoro-4-(4-methyl-1H-imidazol-1-yl)phenyl)-6a-methyl-6a, 7,8,9-tetrahydro-6H-pyrimido [5,4-b] pyrrolo [1,2-d] [1, 4] oxazin-2-amine]	438
COc1cc(Nc2ncc3c(n2)N(C)C(C2CCS(=O)(=O)CC2)CO3)ccc1-n1cnc(C)c1 (single isomer, unassigned; (-)) [Example 239A, (−)-4-(2-((3-methoxy-4-(4-methyl-1H-imidazol-1-yl)phenyl)amino)-8-methyl-7,8-dihydro-6H-pyrimido [5,4-b] [1, 4]oxazin-7-yl) tetrahydro-2H-thiopyran 1,1-dioxide]	407
COc1cc(Nc2ncc3c(n2)N2CCCC2CO3)ccc1-n1cnc(C)c1 (single isomer, unassigned; (+)) [Example 290B, (+)-N-(3-methoxy-4-(4-methyl-1H-imidazol-1-yl)phenyl)-6a, 7,8,9-tetrahydro-6H-pyrimido [5,4-b] pyrrolo [1,2-d] [1, 4] oxazin-2-amine]	151
COc1cc(Nc2ncc3c(n2)N(C)C(c2cc(F)cc(F)c2)CO3)ccc1-c1ccnc(C)c1 (single isomer, unassigned; (+)) [Example 42A]	36
COc1cc(Nc2ncc3c(n2)N(C)C(c2ccccc2Cl)CO3)ccc1-n1cnc(C)c1 (racemic) [Example 51]	32
COc1cc(Nc2ncc3c(n2)N(C)C(Cc2ccccc2)CO3)ccc1-n1cnc(C)c1 (racemic) [Example 47]	41
COc1ccc(C2COc3cnc(Nc4ccc(-n5cnc(C)c5)c(OC)c4)nc3N2C)c(C)c1 (single isomer, unassigned; (+)) [Example 199A]	25
Cc1cn(-c2ccc(Nc3ncc4c(n3)N(C)C(C)CO4)cn2)cn1 (single isomer, unassigned; (+)) [Example 194A]	970
COc1ccc(C2COc3cnc(Nc4ccc(-n5cnc(C)c5)c(OC)c4)nc3N2C)c(C)c1 (racemic) [Example 92]	27
COc1nc(Nc2ncc3c(n2)N(C)C(c2cc(F)c(F)c(F)c2)CO3)ccc1-n1cnc(C)c1 (single isomer, unassigned; (-)) [Example 188A]	> 3000
Cc1cn(-c2ccc(Nc3ncc4c(n3)N(C)C(c3cc(F)c(F)c(F)c3)CO4)cc2F)cn1 (single isomer, unassigned; (+)) [Example 118A]	29
COc1cc(Nc2ncc3c(n2)N(C)C(CC(F)(F)F)CO3)ccc1-n1cnc(C)c1 (single isomer, unassigned; (+)) [Example 172B]	54
COc1cc(Nc2ncc3c(n2)N(C)C(c2ccc(C(F)(F)F)cc2C(F)(F)F)CO3)ccc1-n1cnc(C)c1 (racemic) [Example 91]	110
COc1nc(Nc2ncc3c(n2)N(C)C(c2cc(F)c(F)cc2F)CO3)ccc1-n1cnc(C)c1 (racemic) [Example 191]	2250

SMILES	IC50 [nM]
COc1cc(Nc2ncc3c(n2)N(C)C(c2cc(F)cc(F)c2)CO3)ccc1C#N (single isomer, unassigned; (-)) [Example 237A, (−)-4-((7-(3,5-difluorophenyl)-8-methyl-7,8-dihydro-6H-pyrimido [5,4-b] [1, 4]oxazin-2-yl)amino)-2-methoxybenzonitrile]	> 3000
Cc1cn(-c2ccc(Nc3ncc4c(n3)N(C)C(c3cc(F)cc(F)c3)CO4)nc2C#N)cn1 (single isomer, unassigned; (-)) [Example 192A, (−)-6-((7-(3,5-difluorophenyl)-8-methyl-7,8-dihydro-6H-pyrimido [5,4-b] [1, 4]oxazin-2-yl)amino)-3-(4-methyl-1H-imidazol-1-yl) picolinonitrile]	> 3000
COc1nc(Nc2ncc3c(n2)N(C)C(c2ccccc2C)CO3)ccc1-n1cnc(C)c1 (single isomer, unassigned; (+)) [Example 180B]	374
CN1c2nc(Nc3ccc(C#N)cc3)ncc2OCC1c1cc(F)cc(F)c1 (single isomer, unassigned; (+)) [Example 233A, (+)-4-((7-(3,5-difluorophenyl)-8-methyl-7,8-dihydro-6H-pyrimido [5,4-b] [1, 4]oxazin-2-yl)amino) benzonitrile]	888
Cc1cc(-c2ccc(Nc3ncc4c(n3)N(C)C(c3ccccc3)CO4)cc2)ccn1 (single isomer, unassigned; (-)) [Example 24B]	1020
COc1cc(Nc2ncc3c(n2)N(C)C(c2ccc(F)cc2C)CO3)ccc1-n1cnc(C)c1 (racemic) [Example 54]	75
COc1cc(Nc2ncc3c(n2)N(C)C(c2ccccc2)CO3)ccc1-c1ccnc(C)c1 (racemic) [Example 46, N-(3-methoxy-4-(2-methylpyridin-4-yl)phenyl)-8-methyl-7-phenyl-7,8-dihydro-6H-pyrimido[5,4-b][1,4]oxazin-2-amine]	48
COc1cc(Nc2ncc3c(n2)N(C)C(c2ccc(C(F)(F)F)cc2C(F)(F)F)CO3)ccc1-n1cnc(C)c1 (single isomer, unassigned; (-)) [Example 168A]	566
COc1cc(Nc2ncc3c(n2)N(C)[C@@H](C2CC2)CO3)ccc1-n1cnc(C)c1 [Example 224]	22
Cc1cn(-c2ccc(Nc3ncc4c(n3)N(C)C(c3cc(F)cc(F)c3)CO4)cc2F)cn1 (single isomer, unassigned; (-)) [Example 33B]	389
Cc1cc(-c2ccc(Nc3ncc4c(n3)N(C)C(c3cc(F)cc(F)c3)CO4)cc2)ccn1 (single isomer, unassigned; (-)) [Example 28A]	1960
COc1nc(Nc2ncc3c(n2)N(C)C(c2cc(F)c(F)c(F)c2)CO3)ccc1-n1cnc(C)c1 (single isomer, unassigned; (+)) [Example 188B]	275
COc1cc(Nc2ncc3c(n2)N(C)C2(CCOCC2)CO3)cnc1-n1cnc(C)c1 [Example 274]	295
COc1cc(Nc2ncc3c(n2)N(C)C2(CO3)CC(F)(F)C2)ccc1-n1cnc(Cl)c1 [Example 277]	97
COc1cc(Nc2ncc3c(n2)N(C)C(c2ccc(Cl)cc2C(F)(F)F)CO3)ccc1-c1ccnc(C)c1 (single isomer, unassigned; (-)) [Example 107A]	422
COc1cc(Nc2ncc3c(n2)N(C)C(c2ccccc2C(F)(F)F)CO3)ccc1-c1ccnc(C)c1 (single isomer, unassigned; (-)) [Example 70A]	339
COc1cc(Nc2ncc3c(n2)N(C)C(c2ccc(Cl)cc2C(F)(F)F)CO3)ccc1-n1cnc(C)c1 (single isomer, unassigned; (+)) [Example 112B]	64
COc1cc(Nc2ncc3c(n2)N(C)C(c2ccccc2C)CO3)ccc1-c1ccnc(C)c1 (racemic) [Example 35]	87
Cc1cn(-c2ccc(Nc3ncc4c(n3)N(C)C(C)CO4)cc2C#N)cn1 (single isomer, unassigned; (-)) [Example 205B, (−)-5-((7,8-dimethyl-7,8-dihydro-6H-pyrimido [5,4-b] [1, 4]oxazin-2-yl)amino)-2-(4-methyl-1H-imidazol-1-yl) benzonitrile]	259
COc1cc(Nc2ncc3c(n2)N(C)C(c2ccc(F)cc2F)CO3)ccc1-c1ccnc(C)c1 (single isomer, unassigned; (+)) [Example 63B]	64
COc1cc(Nc2ncc3c(n2)N(C)[C@@H](c2ccccc2)CO3)ccc1-n1cnc(C)c1 [Example 21A, (S)—N-(3-methoxy-4-(4-methyl-1H-imidazol-1-yl)phenyl)-8-methyl-7-phenyl-7,8-dihydro-6H-pyrimido[5,4-b][1,4]oxazin-2-amine]	22
COc1cc(Nc2ncc3c(n2)N(C)C(C)CO3)ccc1-n1cnc(C)c1 (single isomer, unassigned; (+)) [Example 116B]	63
Cc1cc(-c2ccc(Nc3ncc4c(n3)N(C)C(c3ccc(F)cc3F)CO4)cc2F)ccn1 (single isomer, unassigned; (-)) [Example 66B]	1100
